ChEMBL document CHEMBL1201862, “PubChem BioAssay data set” (2004)
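Dose response: 5 concentrations. Exposure: 48 h. Format: 96-well plates. Endpoint: linear interpolation; highest concentration if not reached. Abbreviation: GI50, concentration required for 50% inhibition of growth.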 The source made the active and inactive calls. No stated cut-off is given here; in the data, active = GI50 up to about 1.1 µM and inactive = higher.

What was measured:
Experiment in all cases: NCI anticancer screen, dose series, 48 h
[1] = system: 786-0
[2] = system: A498
[3] = system: A549
[4] = system: ACHN
[5] = system: CAKI-1
[6] = system: CCRF-CEM
[7] = system: COLO 205
[8] = system: DLD-1
[9] = system: DMS-273
[10] = system: EKVX
[11] = system: HCC 2998
[12] = system: HCT-116
[13] = system: HCT-15
[14] = system: HL-60
[15] = system: HOP-18
[16] = system: HOP-62
[17] = system: HT-29
[18] = system: IGROV-1
[19] = system: K562
[20] = system: KM-20L2
[21] = system: KM12
[22] = system: LXFL 529
[23] = system: M14
[24] = system: M19-MEL
[25] = system: MOLT-4
[26] = system: Malme-3M
[27] = system: NCI-H226
[28] = system: NCI-H23
[29] = system: NCI-H460
[30] = system: NCI-H522
[31] = system: OVCAR-3
[32] = system: OVCAR-4
[33] = system: OVCAR-5
[34] = system: OVCAR-8
[35] = system: RPMI-8226
[36] = system: RXF 393
[37] = system: RXF 631
[38] = system: SF-295
[39] = system: SF-539
[40] = system: SK-MEL-2
[41] = system: SK-MEL-5
[42] = system: SK-OV-3
[43] = system: SN12C
[44] = system: SNB-19
[45] = system: SNB-75
[46] = system: SNB-78
[47] = system: SR
[48] = system: SW-620
[49] = system: TK-10
[50] = system: U-251
[51] = system: UACC-257
[52] = system: UACC-62
[53] = system: UO-31
[54] = system: XF498
[55] = system: DMS-114
[56] = system: HOP-92
[57] = system: SF-268
[58] = system: SK-MEL-28
[59] = system: LOX IMVI

N=S(=O)(c1ccccc1)c1ccccc1[N+](=O)[O-] (configuration not stated)
GI50 [1]: > 100 µM (inactive)
GI50 [2]: > 100 µM (inactive)
GI50 [3]: > 100 µM (inactive)
GI50 [4]: > 100 µM (inactive)
GI50 [5]: > 100 µM (inactive)
GI50 [6]: > 100 µM (inactive)
GI50 [7]: > 100 µM (inactive)
GI50 [8]: > 100 µM (inactive)
GI50 [9]: > 100 µM (inactive)
GI50 [10]: > 100 µM (inactive)
GI50 [11]: > 100 µM (inactive)
GI50 [12]: > 100 µM (inactive)
GI50 [13]: > 100 µM
GI50 [14]: > 100 µM (inactive)
GI50 [15]: > 100 µM (inactive)
GI50 [16]: > 100 µM (inactive)
GI50 [17]: > 100 µM (inactive)
GI50 [18]: > 100 µM (inactive)
GI50 [19]: > 100 µM (inactive)
GI50 [20]: > 100 µM (inactive)
GI50 [21]: > 100 µM (inactive)
GI50 [22]: > 100 µM (inactive)
GI50 [23]: > 100 µM (inactive)
GI50 [24]: > 100 µM (inactive)
GI50 [25]: > 100 µM (inactive)
GI50 [26]: > 100 µM (inactive)
GI50 [27]: > 100 µM (inactive)
GI50 [28]: > 100 µM (inactive)
GI50 [29]: > 100 µM (inactive)
GI50 [30]: > 100 µM (inactive)
GI50 [31]: > 100 µM (inactive)
GI50 [32]: > 100 µM (inactive)
GI50 [33]: > 100 µM (inactive)
GI50 [34]: > 100 µM (inactive)
GI50 [35]: > 100 µM (inactive)
GI50 [36]: > 100 µM (inactive)
GI50 [37]: > 100 µM (inactive)
GI50 [38]: > 100 µM (inactive)
GI50 [39]: > 100 µM (inactive)
GI50 [40]: 68.5 µM (inactive)
GI50 [41]: > 100 µM (inactive)
GI50 [42]: > 100 µM (inactive)
GI50 [43]: > 100 µM (inactive)
GI50 [44]: > 100 µM (inactive)
GI50 [45]: > 100 µM (inactive)
GI50 [46]: > 100 µM (inactive)
GI50 [47]: > 100 µM (inactive)
GI50 [48]: > 100 µM (inactive)
GI50 [49]: > 100 µM (inactive)
GI50 [50]: > 100 µM (inactive)
GI50 [51]: > 100 µM (inactive)
GI50 [52]: > 100 µM (inactive)
GI50 [53]: > 100 µM (inactive)
GI50 [54]: > 100 µM (inactive)

Cn1c(=O)nc2n(-c3ccc(Cl)cc3)c(-c3ccccc3)c(-c3ccccc3)nc-2c1=O
GI50 [1]: 29.8 µM (inactive)
GI50 [2]: 49.3 µM (inactive)
GI50 [3]: 31.1 µM (inactive)
GI50 [4]: 19.9 µM (inactive)
GI50 [5]: 24.8 µM (inactive)
GI50 [6]: 21.9 µM (inactive)
GI50 [7]: 33 µM (inactive)
GI50 [8]: 34 µM (inactive)
GI50 [55]: 28.1 µM (inactive)
GI50 [9]: 22.6 µM (inactive)
GI50 [10]: 47 µM (inactive)
GI50 [11]: 47.2 µM (inactive)
GI50 [13]: 22.5 µM
GI50 [14]: 18.3 µM (inactive)
GI50 [15]: 57.9 µM (inactive)
GI50 [16]: 25.3 µM (inactive)
GI50 [56]: 16.5 µM (inactive)
GI50 [17]: 32.1 µM (inactive)
GI50 [18]: 30.1 µM (inactive)
GI50 [19]: 25.6 µM (inactive)
GI50 [20]: 30.2 µM (inactive)
GI50 [21]: 23.8 µM (inactive)
GI50 [22]: 27.7 µM (inactive)
GI50 [23]: 20 µM (inactive)
GI50 [25]: 16.5 µM (inactive)
GI50 [26]: 28.4 µM (inactive)
GI50 [27]: 19.2 µM (inactive)
GI50 [28]: 66.2 µM (inactive)
GI50 [29]: 24.7 µM (inactive)
GI50 [30]: 36.7 µM (inactive)
GI50 [31]: 21.7 µM (inactive)
GI50 [32]: 29.5 µM (inactive)
GI50 [33]: 66.8 µM (inactive)
GI50 [34]: 37.5 µM (inactive)
GI50 [35]: 22.1 µM (inactive)
GI50 [37]: 28.3 µM (inactive)
GI50 [57]: 23.6 µM (inactive)
GI50 [38]: 30.1 µM (inactive)
GI50 [39]: 23 µM (inactive)
GI50 [58]: 25.5 µM (inactive)
GI50 [40]: 23.6 µM (inactive)
GI50 [41]: 20.1 µM (inactive)
GI50 [42]: 40.3 µM (inactive)
GI50 [43]: 33.6 µM (inactive)
GI50 [44]: 32.1 µM (inactive)
GI50 [45]: 23.2 µM (inactive)
GI50 [46]: 49.2 µM (inactive)
GI50 [48]: 40.7 µM (inactive)
GI50 [49]: 51.2 µM (inactive)
GI50 [50]: 27.5 µM (inactive)
GI50 [51]: 24.3 µM (inactive)
GI50 [52]: 14.5 µM (inactive)
GI50 [53]: 18.4 µM (inactive)
GI50 [54]: 12.9 µM (inactive)

O=[N+]([O-])c1ccc2nc(/C(=N/Nc3ccccc3)C(O)c3ccc(Cl)cc3Cl)c(O)nc2c1 (configuration not stated)
GI50 [1]: > 100 µM (inactive)
GI50 [2]: > 100 µM (inactive)
GI50 [3]: > 100 µM (inactive)
GI50 [4]: > 100 µM (inactive)
GI50 [6]: 22.3 µM (inactive)
GI50 [7]: 38.9 µM (inactive)
GI50 [8]: > 100 µM (inactive)
GI50 [55]: 8.65 µM (inactive)
GI50 [9]: 39 µM (inactive)
GI50 [10]: > 100 µM (inactive)
GI50 [11]: > 100 µM (inactive)
GI50 [12]: > 100 µM (inactive)
GI50 [13]: > 100 µM
GI50 [14]: 21 µM (inactive)
GI50 [15]: > 100 µM (inactive)
GI50 [16]: > 100 µM (inactive)
GI50 [56]: > 100 µM (inactive)
GI50 [17]: > 100 µM (inactive)
GI50 [18]: > 100 µM (inactive)
GI50 [19]: 30 µM (inactive)
GI50 [20]: > 100 µM (inactive)
GI50 [21]: 49.3 µM (inactive)
GI50 [59]: > 100 µM (inactive)
GI50 [23]: > 100 µM (inactive)
GI50 [24]: > 100 µM (inactive)
GI50 [25]: 84.5 µM (inactive)
GI50 [26]: > 100 µM (inactive)
GI50 [27]: > 100 µM (inactive)
GI50 [28]: > 100 µM (inactive)
GI50 [29]: > 100 µM (inactive)
GI50 [30]: 15.9 µM (inactive)
GI50 [31]: > 100 µM (inactive)
GI50 [32]: > 100 µM (inactive)
GI50 [33]: > 100 µM (inactive)
GI50 [34]: > 100 µM (inactive)
GI50 [35]: 52.4 µM (inactive)
GI50 [36]: > 100 µM (inactive)
GI50 [37]: 50.4 µM (inactive)
GI50 [57]: > 100 µM (inactive)
GI50 [38]: > 100 µM (inactive)
GI50 [39]: > 100 µM (inactive)
GI50 [40]: > 100 µM (inactive)
GI50 [41]: 21.8 µM (inactive)
GI50 [42]: > 100 µM (inactive)
GI50 [43]: > 100 µM (inactive)
GI50 [45]: > 100 µM (inactive)
GI50 [46]: > 100 µM (inactive)
GI50 [47]: 29.6 µM (inactive)
GI50 [49]: > 100 µM (inactive)
GI50 [50]: > 100 µM (inactive)
GI50 [51]: > 100 µM (inactive)
GI50 [52]: 48.5 µM (inactive)
GI50 [53]: 78.9 µM (inactive)
GI50 [54]: > 100 µM (inactive)
